Laboratory results from PubChem BioAssay (NCI).
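Values below derive from 48-hour exposures of cells grown in 96-well plates, with endpoints linearly interpolated between the two concentrations bracketing the appropriate inhibition level. TGI is the concentration that stops growth completely.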

What was measured:
Experiment in all cases: DTP human tumour cell line panel, 48 h
[1] = tested on: EKVX NSCLC
[2] = tested on: LOX IMVI melanoma
[3] = tested on: A498 renal
[4] = tested on: UACC-257 melanoma
[5] = tested on: NCI-H226 lung
[6] = tested on: RPMI-8226 leukemia
[7] = tested on: SN12C renal
[8] = tested on: T-47D breast
[9] = tested on: NCI-H23 lung
[10] = tested on: A549 NSCLC

O=C(CC(=O)Nc1ccccc1)NNC(Sc1ccccc1)c1cc(N=Nc2ccc(Br)cc2)ccc1O (stereo not drawn)
TGI [1]: > 10 µM
TGI [2]: > 10 µM
TGI [3]: 5.84 µM
TGI [4]: > 10 µM
TGI [5]: 5.04 µM
TGI [6]: > 10 µM
TGI [7]: > 10 µM
TGI [8]: > 10 µM
TGI [9]: > 10 µM
TGI [10]: > 10 µM

O=C1c2cccc3cccc(c23)C(=O)N1CCCNCCCCNCCCNCCCN1C(=O)c2cccc3cccc(c23)C1=O
TGI [1]: 5.67 µM
TGI [3]: 2.47 µM
TGI [4]: 3.06 µM
TGI [5]: 2.15 µM
TGI [7]: 1.8 µM
TGI [9]: 1.72 µM
TGI [10]: 1.39 µM

CC(C)Oc1cccc(N2C(=NCc3c[nH]c4ccccc34)Nc3ccncc3S2(=O)=O)c1
TGI [1]: 79 µM
TGI [2]: > 100 µM
TGI [3]: > 100 µM
TGI [4]: > 100 µM
TGI [5]: > 100 µM
TGI [6]: 30 µM
TGI [7]: > 100 µM
TGI [8]: 85.2 µM
TGI [9]: > 100 µM
TGI [10]: > 100 µM

O=C(O)c1cccc(S(=O)(=O)NN2C(=O)CSC2c2ccc(Cl)cc2Cl)c1 (stereo not drawn)
TGI [1]: > 100 µM
TGI [2]: > 100 µM
TGI [3]: > 100 µM
TGI [4]: > 100 µM
TGI [5]: > 100 µM
TGI [6]: > 100 µM
TGI [7]: > 100 µM
TGI [8]: > 100 µM
TGI [9]: > 100 µM
TGI [10]: > 100 µM

CC(C(=O)COCc1ccccc1)P1(=O)OC(C)(C)CN1C(C)(C)C (stereo not drawn)
TGI [1]: > 100 µM
TGI [2]: > 100 µM
TGI [3]: > 100 µM
TGI [4]: > 100 µM
TGI [5]: > 100 µM
TGI [6]: > 100 µM
TGI [7]: > 100 µM
TGI [8]: > 100 µM
TGI [9]: > 100 µM
TGI [10]: > 100 µM

C=CCn1c(=O)ccn(/C(=C/C(=O)OCC)C(=O)OCC)c1=O
TGI [1]: 38.2 µM
TGI [2]: 18.1 µM
TGI [3]: 33.3 µM
TGI [4]: 28.7 µM
TGI [5]: > 31.6 µM
TGI [6]: 31.4 µM
TGI [7]: 25.2 µM
TGI [8]: 19 µM
TGI [9]: 36.4 µM
TGI [10]: 32.3 µM

N#Cc1sc2c(c1OC(=O)c1ccc(C(F)(F)F)cc1)c(=O)n(-c1ccccc1)c(=S)n2-c1ccccc1
TGI [1]: 70.9 µM
TGI [2]: 59.9 µM
TGI [3]: 90.2 µM
TGI [4]: > 100 µM
TGI [5]: 99.8 µM
TGI [6]: 45.9 µM
TGI [7]: 88.1 µM
TGI [8]: > 100 µM
TGI [9]: > 100 µM
TGI [10]: > 100 µM

O=C(NN1C(=O)CS(=O)(=O)C1c1ccc(C(F)(F)F)cc1)c1ccncc1 (stereo not drawn)
TGI [2]: > 100 µM
TGI [3]: > 100 µM
TGI [4]: > 100 µM
TGI [5]: > 100 µM
TGI [6]: > 100 µM
TGI [7]: > 100 µM
TGI [9]: > 100 µM
TGI [10]: > 100 µM

[N-]=[N+]=CC(=O)OC(CCl)CCl
TGI [1]: > 100 µM
TGI [2]: > 100 µM
TGI [3]: > 100 µM
TGI [4]: > 100 µM
TGI [5]: > 100 µM
TGI [6]: > 100 µM
TGI [7]: > 100 µM
TGI [9]: > 100 µM

COc1cccc2c1OC(c1cccc3ccccc13)C([N+](=O)[O-])=C2 (stereo not drawn)
TGI [1]: 10.5 µM
TGI [4]: 4.42 µM
TGI [5]: 4.32 µM
TGI [6]: > 100 µM
TGI [7]: 11.2 µM
TGI [8]: 5.69 µM
TGI [9]: 4.29 µM
TGI [10]: 3.75 µM

Cc1ccnc(NC(=S)Nc2ccc([N+](=O)[O-])cc2)c1
TGI [1]: > 100 µM
TGI [2]: > 100 µM
TGI [4]: > 100 µM
TGI [5]: > 100 µM
TGI [6]: > 100 µM
TGI [8]: > 100 µM
TGI [9]: > 100 µM
